Ki data for eight compounds are collected here from ChEMBL document CHEMBL1133474, “Role of hydrophobic interactions in binding S-(N-aryl/alkyl-N-hydroxycarbamoyl)glutathiones to the active site of the antitumor target enzyme glyoxalase I” (J Med Chem, 2000).

The target in this test is Lactoylglutathione lyase (Homo sapiens, UniProt Q04760). Description: Binding affinity for Glyoxalase I.
Lactoylglutathione lyase, sequence (Q04760 whole entry): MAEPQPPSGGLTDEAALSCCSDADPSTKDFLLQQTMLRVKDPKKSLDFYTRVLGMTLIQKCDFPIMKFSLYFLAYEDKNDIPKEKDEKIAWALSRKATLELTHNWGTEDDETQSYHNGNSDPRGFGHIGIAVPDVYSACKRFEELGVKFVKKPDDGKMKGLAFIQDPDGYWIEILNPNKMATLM
`CCCCCCN(O)C(=O)SC[C@H](NC(=O)CC[C@H](N)C(=O)O)C(=O)NCC(=O)O` yielded a Ki of 16 nM.

Regarding `CCCCN(O)C(=O)SC[C@H](NC(=O)CC[C@H](N)C(=O)O)C(=O)NCC(=O)O`, the Ki amounted to 180 nM.

Compound `CCCCCCCN(O)C(=O)SC[C@H](NC(=O)CC[C@H](N)C(=O)O)C(=O)NCC(=O)O` came in with a Ki of 18 nM.

The compound `CCN(O)C(=O)SC[C@H](NC(=O)CC[C@H](N)C(=O)O)C(=O)NCC(=O)O` yielded a Ki of 1180 nM.

Compound `CN(O)C(=O)SC[C@H](NC(=O)CC[C@H](N)C(=O)O)C(=O)NCC(=O)O` gave a Ki of 1700 nM.

`CCCN(O)C(=O)SC[C@H](NC(=O)CC[C@H](N)C(=O)O)C(=O)NCC(=O)O` gave a Ki of 800 nM. This Ki lies about 2.1-fold lower than the previous one.

In turn, `CCCCCN(O)C(=O)SC[C@H](NC(=O)CC[C@H](N)C(=O)O)C(=O)NCC(=O)O` had a Ki of 170 nM.

The compound `N[C@@H](CCC(=O)N[C@@H](CSC(=O)NO)C(=O)NCC(=O)O)C(=O)O` yielded a Ki of 183000 nM.
